# Square brackets hold non-standard residues; d marks the D form. dDab = NCC[C@@H](N)C(=O)O; Orn = NCCC[C@H](N)C(=O)O; Dab = NCC[C@H](N)C(=O)O
# How the values were obtained:
# Assay type in all cases: in vivo
# [1] = test system: Pseudomonas aeruginosa clinical isolate PA9349; experiment: Murine pneumonia model, compound 1 in combination with ciprofloxacin (Example 3)
# Protocol: Colony counts in lung were determined at 20 hours post treatment.
# Fresh overnight colonies of PA9349 from a 5% Horse Blood Agar plate were suspended in 0.9% sterile saline to approximately 10^8 CFU/ml and further diluted to approximately 10^7 CFU/ml. Female mice (C57BL/6 […], outbred, 20-25 g, Hellenic Pasteur Institute) were anesthetized with ether and inoculated via the nose with a pipette with 0.05 ml of the bacteria suspension containing approximately 10^6 CFU. After inoculation, mice were treated with paracetamol suppositories as a pain relief.
# The mice were treated subcutaneously with 0.2 ml in the neck region with a single dose at 3 hours post infection corresponding to 20 mg/kg on the basis of a mean animal weight of 20 g.
# 1 vial was further diluted with saline to 1, 0.8 and 0.4 mg/ml. The mice were treated subcutaneously with 0.25 ml (25 mg/kg dose) or 0.2 ml (for all other doses) in the neck region with a single dose at 4 hours post infection with a dose calculation based on a mean animal weight of 20 g.
# (§1) Colony counts were determined post inoculation at 4 hours (untreated mice) and 24 hours (treated and vehicle-only treated mice). Immediately after the mice were sacrificed, the lungs were collected and frozen at −20° C. After thawing, the organs were homogenized in 1 ml 0.9% saline. Each sample was then 10 fold diluted in saline and 20 μl spots were applied on blood agar plates. All agar plates were incubated 18-24 hours at 35° C. in ambient air.
# [2] = test system: Pseudomonas aeruginosa clinical isolate PA18298; experiment: Murine pneumonia model, compound 1 alone (Reference 3)
# Protocol: Efficacy in Murine Pneumonia Model Against Pseudomonas aeruginosa PA18298 and Estimation of ED50
# The efficacy and ED50 of the compound of formula (I) (“compound 1”) was determined against Pseudomonas aeruginosa clinical isolate PA18298 in a pneumonia model in mice. Colony counts in the lungs were determined at 18-20 hours post treatment.
# (§2) Fresh overnight colonies of PA18298 from a 5% Horse Blood Agar plate were suspended in 0.9% sterile saline to approximately 10^8 CFU/ml and further diluted to approximately 4×10^7 CFU/ml. Female mice (DBA/2, outbred, 18-22 g, Charles River) were anesthetized with 0.1 ml of Zoletil (tiletamine+zolazepam) and inoculated via the nose with a pipette with 0.05 ml of the bacteria suspension containing approximately 1×10^6 CFU. 4 hours after inoculation, the mice were treated orally with 45 μl neurophen (20 mg ibuprofen/ml corresponding to approximately 30 mg/kg) as pain relief.
# One vial containing 10 mg of active compound 1 was dissolved in 2 ml 0.9% sterile saline to a concentration of 5 mg/ml and was further diluted with saline to 2, 1, 0.75, 0.55, 0.275 and 0.137 mg/ml. The mice were treated subcutaneously with 0.2 ml in the neck region with a single dose at 4 hours post infection with a dose calculation based on a mean animal weight of 20 g. As positive control colistin was used in the same manner with a fixed dose of 20 mg/kg.
# as §1, with “10-fold” for “10 fold”, “18-48” for “18-24”
# The CFU/ml in the inoculum was determined to 7.49 log10 CFU/ml corresponding to 6.20 log10 CFU/mouse.
# At 4 hours after infection the mean log10 CFU/lung was 5.05 and the CFU level declined to 2.62 at 24 hours post inoculation in the vehicle-only group.
# [3] = test system: Pseudomonas aeruginosa clinical isolate PAX11045; experiment: Murine pneumonia model, compound 1 in combination with azithromycin (Example 2)
# Protocol: The efficacy and ED50 of the compound of formula (I) (“compound 1”) in combination with azithromycin was determined against Pseudomonas aeruginosa clinical isolate PAX11045 in a pneumonia model in mice. Colony counts in lung were determined at 20 hours post treatment.
# as §2, with “PAX11045” for “PA18298”, “5×10^7” for “4×10^7”, “17-23” for “18-22”, “Zoletil” for “Zoletil (tiletamine+zolazepam)”, “10^6” for “1×10^6”
# 480 mg of azithromycin (Zitromax™, Pfizer) were dissolved in 4.8 ml 0.9% sterile saline to a concentration of 100 mg/ml and further diluted with saline to 5 mg/ml. The mice were treated subcutaneously with 0.2 ml in the neck region with a single dose at 3 hours post infection corresponding to 50 mg/kg on the basis of a mean animal weight of 20 g.
# The mice were treated subcutaneously with 0.2 ml in the neck region with a single dose at 4 hours post infection with a dose calculation based on a mean animal weight of 20 g.
# as §1
# [4] = in presence of 20 mg/kg ciprofloxacin, murine lungs
# [5] = compound 1 alone, s.c., murine lungs
# [6] = in presence of 50 mg/kg azithromycin, murine lungs
substance,measurement,setting,value
cyclo(TWI[Dab][Orn][dDab][Dab]W[Dab][Dab]AS[dP]P) [compound 1],effect on bacterial loads,"[1]; 5.5 mg/kg alone, lung, p<0.001",significant effect on reducing the bacterial loads
same,CFU levels compared to vehicle treatment,"[1]; combination of compound 1 at 1.88-25 mg/kg and ciprofloxacin 20 mg/kg, lung, p<0.001",significant reduction of the CFU levels
same,Top level,"[1]; compound 1 s.c. in presence of 20 mg/kg ciprofloxacin (s.c., 3 h post infection), murine lungs",−0.21 log10 CFU/ml
same,1 log killing dose,[1]; [4],0.45 mg/kg
same,2 log killing dose,[1]; [4],1.00 mg/kg
same,3log killing dose,[1]; [4],1.82 mg/kg
same,Bottom level,[1]; [4],−4.17 log10 CFU/ml
same,Emax,[1]; [4],3.96 log10 CFU/ml
same,ED50,"[1]; in presence of fixed dose of 20 mg/kg ciprofloxacin, murine lungs",1.55 mg/kg
same,CFU levels compared to vehicle treatment,"[2]; 11-20 mg/kg, lungs, p<0.01-p<0.001",significant reduction of the CFU levels
same,Top level,"[2]; compound 1 alone, s.c. single dose 4 h post infection, murine lungs",−3.60 log10 CFU/ml
same,Bottom level,[2]; [5],−2.48 log10 CFU/ml
same,Emax,[2]; [5],1.12 log10 CFU/ml
same,Static dose,[2]; [5],9.15 mg/kg
same,ED50,"[2]; compound 1 alone, s.c., murine lungs, sigmoidal dose-response model (variable slope)",26.6 mg/kg
same,effect on bacterial loads,"[3]; 5.5 mg/kg alone, lung, p<0.001",significant effect on reducing the bacterial loads
same,CFU levels compared to vehicle treatment,"[3]; combination of compound 1 (dose series) and azithromycin 50 mg/kg, lung, p<0.01-p<0.001",concentration dependent significant reduction of the CFU levels
same,Top level,"[3]; compound 1 s.c. in presence of 50 mg/kg azithromycin (s.c., 3 h post infection), murine lungs",−0.10 log10 CFU/ml
same,1 log killing dose,[3]; [6],1.2 mg/kg
same,2 log killing dose,[3]; [6],2.4 mg/kg
same,Bottom level,[3]; [6],−2.59 log10 CFU/ml
same,Emax,[3]; [6],2.49 log10 CFU/ml
same,Static dose,[3]; [6],0.63 mg/kg
same,ED50,"[3]; in presence of fixed dose of 50 mg/kg azithromycin, murine lungs",1.74 mg/kg

# From patent US9814754B2, “Combinations with a backbone-cyclized peptide” (POLYPHOR AG, priority 2012, dated 2017)
